Data reported in patent publication US20220402867A1, “SULFO-SUBSTITUTED BIARYL COMPOUND OR SALT THEREOF, PREPARATION METHOD THEREFOR, AND USE THEREOF” (Shanghai Litedd Co., Ltd., priority 2019, published 2022).

Columns and labels:
GST-RORγ LBD (263-509) = molecular target: T1, GST-RORγ LBD (263-509) (Homo sapiens, UniProt P51449); test: TR-FRET assay of agonistic activity on RORγ receptor; format: biochemical; conditions: for EC50: TR-FRET, GST-RORγ LBD with Biotin-SRC1
T1 construct: GST-RORγ LBD ((263-509) (produced at ChemPartner))
T1 sequence (P51449 263-509): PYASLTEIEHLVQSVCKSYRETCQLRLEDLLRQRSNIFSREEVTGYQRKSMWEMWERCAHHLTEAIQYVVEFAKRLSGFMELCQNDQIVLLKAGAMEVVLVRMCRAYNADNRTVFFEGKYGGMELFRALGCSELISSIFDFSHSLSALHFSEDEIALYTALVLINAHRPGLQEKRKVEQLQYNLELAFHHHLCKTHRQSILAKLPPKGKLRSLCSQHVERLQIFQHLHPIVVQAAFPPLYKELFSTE
In short: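 GST-RORγ LBD (75 nM solution) mixed 1:1 with Biotin-SRC1 (4 nM solution), then with Eu anti-GST and SA-APC; compounds in 10-point 3-fold series from 10 mM stock, duplicate.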

[1] = molecular target: T2, RORγt (RORγ-LBD chimeric receptor) (Homo sapiens, UniProt P51449); test: Luciferase reporter gene assay of RORγt agonistic activity in HEK293T cells; format: cell-based; design: Emax: dose or concentration left out as unconfirmed; conditions: for EC50: HEK293T, GAL4 luciferase reporter, read-out: EC50; for Emax: HEK-293T
T2 construct: host or cells: HEK293T
T2 sequence (P51449 269-508 limits assumed): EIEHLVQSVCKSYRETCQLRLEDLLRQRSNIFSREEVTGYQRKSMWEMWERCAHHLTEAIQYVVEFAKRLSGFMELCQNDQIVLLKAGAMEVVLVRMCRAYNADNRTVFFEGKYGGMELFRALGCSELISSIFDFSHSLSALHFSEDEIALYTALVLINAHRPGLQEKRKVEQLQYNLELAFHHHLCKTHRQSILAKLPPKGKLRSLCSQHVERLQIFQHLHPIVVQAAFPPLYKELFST
In short: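 HEK293T cells co-transfected with GAL4-RORγ-LBD (pBIND) and GAL4-driven luciferase reporter (pGL4.35), then treated with compounds (10-point 3-fold series; 10 mM top DMSO stock). Luminescence (Steady-Glo) normalised to positive and vehicle controls as % activity; EC50 by log-concentration fit.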

human PBMC (Th17 cells) = test: Th17 differentiation and IL-17 secretion in human PBMC; format: cell-based; conditions: IL-17 ELISA after 48 hours; for Emax: maximum activation rate
Experimental: Test procedure: PBMC cells were first thawed and plated, and then stimulated with stimulating factors (anti-hCD28: 5 μg/mL; rhTGF-β1: 5 ng/mL; rhIL-6: 20 ng/mL; rhIL-23: 10 ng/Ml) to differentiate to Th17, while adding different concentrations of compounds. All test compounds were serially diluted at 3-fold dilution with DMSO, with 8 serial dilutions starting from the maximum concentration 3 μM. The supermatants were collected after 48 hours for IL-17 ELISA detection, and compared with the solvent group, to determine the activation rate of the compounds on Th17 cells to secrete IL-17. EC50 values were fitted with Graphad8.0, and the TOP values fitted by the software was Emax %.

[2] = Metabolic stability in human liver microsomes; format: in vitro ADME; conditions: for microsomal CLint: 0.5 mg protein/mL
In short: (§1)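 Compound incubated at 37 °C with 0.5 mg protein/mL liver microsomes plus cofactors in PBS, sampled at 0–60 min, quenched with cold acetonitrile and quantified by HPLC-MS/MS (n=3). Half-life and Clint (μL/min/mg) come from the slope of ln(% remaining) versus time.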

[3] = Metabolic stability in mouse liver microsomes; format: in vitro ADME, CD-1 mice; conditions: for half-life: CD-1; for microsomal CLint: CD-1, 0.5 mg protein/mL
In short: as §1

[4] = Pharmacokinetic (PK) assay in mice; format: in vivo; conditions: mouse, plasma, CD-1 mice
In short: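 CD-1 mice (3 per group) were dosed IV at 1 mg/kg in 5% DMSO/40% PEG400/55% (20% 3-CD) or by oral gavage at 5 mg/kg in DMSO/1% methylcellulose (1:99). Saphenous blood was sampled from 0 to 24 h into EDTA-K2 tubes for plasma. Plasma levels were measured by UPLC-MS/MS, and PK parameters were calculated from them.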

[5] = maximum activation rate, TOP of fitted curve

Row | Compound | EC50 (GST-RORγ LBD (263-509)) [µM] | Emax (GST-RORγ LBD (263-509); [5]) [%] | EC50 [1] [µM] | Emax [1] [%] | half-life [2] [h] | microsomal CLint [2] [µL/min/mg] | % Remaining (T = 60 min) [2] [%] | % Remaining (T = 60 min) [3] [%] | half-life [3] [h] | microsomal CLint [3] [µL/min/mg] | EC50 (human PBMC (Th17 cells)) [µM] | Emax (human PBMC (Th17 cells)) [%] | further results
1 | CCS(=O)(=O)c1ccc(CC(=O)Nc2cc(Cl)c(-c3ccc(S(=O)(=O)C4CC4)cc3)c(Cl)c2)cc1 [Example 6] | 0.0037 | 171 | 0.013 | 42.1 | > 2.42 | < 9.6 | 82 | 78.60 | > 2.42 | < 9.6 | 0.0492 | 254 | 
2 | CS(=O)(=O)c1ccc(C(CO)C(=O)Nc2cc(Cl)c(-c3ccc(S(=O)(=O)C4CC4)cc3)c(Cl)c2)cc1 (single isomer, unassigned) [Example 36, (S)—N-(2,6-Dichloro-4′-(cyclopropylsulfonyl)-[1,1′-biphenyl]-4-yl)-2-(4-(methylsulfonyl)phenyl)-3-hydroxypropionamide or (R)—N-(2,6-dichloro-4′-(cyclopropylsulfonyl)-[1,1′-biphenyl]-4-yl)-2-(4-(methylsulfonyl)phenyl)-3-hydroxypropionamide] | 0.0043 | 200 | 0.054 | 71.3 | 1.69 | 13.7 | 62.3 | 83.9 | > 2.42 | < 9.6 | 0.0362 | 169 | 

Continued, in another order:

Row | EC50 (GST-RORγ LBD (263-509)) [µM] | Emax (GST-RORγ LBD (263-509); [5]) [%] | EC50 [1] [µM] | Emax [1] [%] | half-life [2] [h] | microsomal CLint [2] [µL/min/mg] | % Remaining (T = 60 min) [2] [%] | % Remaining (T = 60 min) [3] [%] | half-life [3] [h] | microsomal CLint [3] [µL/min/mg] | Compound | EC50 (human PBMC (Th17 cells)) [µM] | Emax (human PBMC (Th17 cells)) [%] | further results
3 | 0.0051 | 191 | 0.067 | 70.7 | 1.48 | 15.6 | 62.4 | 74.5 | > 2.42 | < 9.6 | COCC(C(=O)Nc1cc(Cl)c(-c2ccc(S(=O)(=O)C3CC3)cc2)c(Cl)c1)c1ccc(S(C)(=O)=O)cc1 (single isomer, unassigned) [Example 34, (S)—N-(2,6-dichloro-4′-(cyclopropylsulfonyl)-[1,1′-biphenyl]-4-yl)-3-methoxy-2-(4-(methylsulfonyl)phenyl)propanamide or (R)—N-(2,6-dichloro-4′-(cyclopropylsulfonyl)-[1,1′-biphenyl]-4-yl)-3-methoxy-2-(4-(methylsulfonyl)phenyl)propanamide] | 0.0572 | 195 | 
4 | 0.0059 | 190 | 0.124 | 103 | > 2.42 | < 9.6 | 77.2 | 70.7 | 1.79 | 12.9 | CCS(=O)(=O)c1ccc(C(CO)C(=O)Nc2cc(Cl)c(-c3ccc(S(=O)(=O)C4CC4)cc3)c(Cl)c2)cc1 (single isomer, unassigned) [Example 38, (S)—N-(2,6-dichloro-4′-(cyclopropylsulfonyl)-[1,1′-biphenyl]-4-yl)-2-(4-(ethylsulfonyl)phenyl)-3-hydroxypropionamide or (R)—N-(2,6-dichloro-4′-(cyclopropylsulfonyl)-[1,1′-biphenyl]-4-yl)-2-(4-(ethylsulfonyl)phenyl)-3-hydroxypropionamide] | 0.0228 | 179 | 
5 | 0.0099 |  | 0.093 | 77.5 | 2.4 | 9.6 | 71.1 | 71.8 | 1.95 | 11.8 | CCS(=O)(=O)c1ccc(C(COC)C(=O)Nc2cc(Cl)c(-c3ccc(S(=O)(=O)C4CC4)cc3)c(Cl)c2)cc1 (single isomer, unassigned) [Example 40, (S)—N-(2,6-dichloro-4′-(cyclopropylsulfonyl)-[1,1′-biphenyl]-4-yl)-2-(4-(ethylsulfonyl)phenyl)-3-methoxypropionamide or (R)—N-(2,6-dichloro-4′-(cyclopropylsulfonyl)-[1,1′-biphenyl]-4-yl)-2-(4-(ethylsulfonyl)phenyl)-3-methoxypropionamide] | 0.0258 | 224 | Emax % (GST-RORγ LBD (263-509); [5]): 199.3%
6 |  |  | 0.202 | 79.5 | 1.3 | 17.8 | 58.7 | 82.60 | > 2.42 | < 9.6 | CCS(=O)(=O)c1ccc(C(COC)C(=O)Nc2cc(Cl)c(-c3ccc(S(C)(=O)=O)cc3)c(Cl)c2)cc1 (stereo not drawn) [Example 15, N-(2,6-Dichloro-4′-(methylsulfonyl)-[1,1′-biphenyl]-4-yl)-2-(4-(ethylsulfonyl)phenyl)-3-methoxypropionamide] | 0.0451 | 197 | AUC(0-t) ([4]; IV 1 mg/kg): 2.3 µg·h/mL; Cmax ([4]; IV 1 mg/kg): 1.44 µg/mL; half-life ([4]; IV 1 mg/kg): 1.23 h; Vd ([4]; IV 1 mg/kg, values marked *, read-out: Vss): 0.71 L/kg; bioavailability ([4]; Po 5 mg/kg vs IV 1 mg/kg): 40%; AUC(0-t) ([4]; Po 5 mg/kg): 4.24 µg·h/mL; Cmax ([4]; Po 5 mg/kg): 1.06 µg/mL; half-life ([4]; Po 5 mg/kg): 2.32 h
